Test results reported in patent US10995068B2, “Synthetic sphingolipid-like molecules, drugs, methods of their synthesis and methods of treatment” (The Regents of the University of California, priority 2015, dated 2021).

Tested on: 4F2hc, ASCT2, GLUT1
Experiment: Nutrient transporter internalization
Assay type: cell-based
Conditions: CD147 not affected
Description: As a proof of principle concerning the ability of C-aryl azacyclic constrained sphingolipid-like compounds, compound SH-BC-893 was examined thoroughly in a series of exemplary embodiment experiments. (The chemical structure of SH-BC-893, also referred to in the in this application as compound 5 and compound 104, and of FTY720 are shown in FIG. 51A). Results are provided below, along with a number of correlated data tables and graphs (Tables 7 and 8 and FIGS. 51-67). In embodiments, SH-BC-893 induces nutrient transporter loss and mimics starvation without the S1P receptor associated toxicity of FTY720. SH-BC-893 lacks the sphingosine-1-phosphate (S1P) receptor activity that prevents the use of FTY720 in cancer patients (FIG. 51B). […]
Light Microscopy: Brightfield and epifluorescence microscopy were conducted using a Nikon TE2000-S fluorescence microscope; confocal microscopy was performed on a Zeiss LSM780 confocal microscope or Nikon Eclipse Ti spinning disk confocal microscope. […] Co-localization was determined using JACoP plugin in ImageJ software. Macropinocytosis was measured after 16 h incubation in serum-free DMEM. p53−/−; LSL-K-RasG12D MEFs before (LSL) or after (KRasG12D) introduction of Cre were serum starved for 16 h and then treated with macropinocytosis inhibitor 5-(N-ethyl-N-isopropyl) amiloride (EIPA, 75 μM) for 1 h or SH-BC-893 for 6 h. […]

CCCCCCCCc1ccc([C@H]2CCN[C@@H]2CO)cc1.Cl [Compound 5, (2S,3R)-2-(hydroxymethyl)-3-(4-octylphenyl)Pyrrolidinium chloride]
internalization of amino acid and glucose transporters (4F2hc, ASCT2, GLUT1): triggers the selective internalization
